Source: patent publication US12195762B2, “Induction of pluripotent cells” (The Scripps Research Institute, priority 2009, dated 2025)
Entries after “also recorded” stand apart in the source; their conditions may differ.

Columns and labels:
[1] = system: NHEKs, Neonatal Human Epidermal Keratinocytes; experiment: Reprogramming of NHEKs (TRA-1-81 positive iPSC colonies); type: cell-based; conditions: for generation of iPSCs / enhancement of reprogramming under OK condition (in words): 2TFs (OK)
Experimental: NHEKs were cultured in a 100 mm tissue culture dish and transduced 3 times (3-4 hours each transduction) with freshly produced lentivirus supernatants. 1,000,000 transduced NHEKs were seeded on the irradiated x-ray inactivated CF1 MEF feeder cells in a 100-mm dish and cultured in KCM and treated with 5 μM PS48, 0.25 mM NaB (Stemgent) and 0.5 μM A-83-01 (Stemgent) for 2 weeks, followed by changing half volume of media to hESCM and supplementing with 5 μM PS48, 0.25 mM NaB and 0.5 μM A-83-01 for another 2 weeks. Then cell culture media were changed to hESCM and supplemented with 5 μM PS48, 0.25 mM NaB, 0.5 μM A-83-01 and 0.5 μM PD0325901 (Stemgent) for additional four weeks. The same OCT4 infected keratinocytes cultured in media without chemicals were used as a control. The culture was split by Accutase (Millipore) and treated with 1 μM Thiazovivin (Stemgent) in the first day after splitting. The iPSC colonies stained positive by Alexa Fluor 555 Mouse anti-Human TRA-1-81 antibody (BD Pharmingen) were picked up for expansion on feeder cells in hESCM and cultured routinely.
NHEKs, Neonatal Human Epidermal Keratinocytes; HUVECs, Human Umbilical Vein Endothelial Cells; AHEKs, Adult Human Epidermal Keratinocytes; AFDCs, Amniotic Fluid Derived Cells. Chemical concentration used: PD, 0.5 μM PD0325901; A83, 0.5 μM A-83-01; PS48, 5 μM PS48; VPA, 0.5 mM Valproic acid; NaB, 0.25 mM Sodium butyrate; Par, 2 μM Parnate; CHIR, 3 μM CHIR99021. For four-factor or three-factor induced reprogramming, NHEKs were seeded at a density of 100,000 transduced cells per 10 cm dish and positive colonies were counted four-week later; For two-factor induced reprogramming, NHEKs were seeded at a density of 100,000 transduced cells per 10 cm dish and positive colonies were counted six-week later; For one-factor induced reprogramming, NHEKs and AHEKs were seeded at a density of 1,000,000 transduced cells per 10 cm dish and positive colonies were counted eight-week later; HUVECs and AFDCs were seeded at a density of 200,000 transduced cells per 10 cm dish and positive colonies were counted six-week later.

[2] = system: human primary fibroblasts (CRL2097 or BJ); experiment: iPSC induction from human primary fibroblasts transduced with the four reprogramming factors, with compound treatment; type: cell-based; conditions: for effect on reprogramming (in words): 4 factor-mediated reprogramming of fibroblasts
Experimental: We tested known inhibitors of the TGFβ receptor and MEK on 1×10^4 (Feng, B. et al., Cell Stem Cell 4, 301-12 (2009)) human primary fibroblasts (CRL2097 or BJ) that were retrovirally transduced with the 4TFs, for their effect on reprogramming kinetics and efficiency (see FIG. 1a for details). On day 7 (D7) post-infection, the compounds were added, individually or in combinations, and the cultures were examined for iPSCs over the next 1-3 weeks.
The Slc7a1-expressing human fibroblast cells were seeded at 1×10^5 cells/well of a 6 well plate on the day 1. On day 2, 0.25 ml of each retroviral supernatant was added to the cells in the presence of 6 μg/ml polybrene. A second round of transduction was done on day 3. Infection efficiency was estimated by fluorescence microscopy on cells transduced in parallel with GFP or RFP gene-carrying retroviruses. Seven days after initial transduction, fibroblasts were harvested by trypsinization and re-plated at 1×10^4 cells/well of a 6 well plate coated with matrigel (1:50 dilution, cat 354234, BD Biosciences). For compound treatment, the cells were cultured in human reprogramming medium (DMEM/F12, 20% Knockout serum replacer, 1×MEM Non-Essential amino acid, lx glutamax, 0.11 mM 2-Mercaptoethanol, 20 ng/ml bFGF and 1,000 U/ml LIF) and were treated with 2 μM SB431542 (Stemgent), 0.5 μM PD0325901 (Stemgent), 0.5 μM Thiazovivin, or combinations of the compounds. The media were changed every 2-3 days depending on the cell density. Seven days after compound treatment, either the plates were fixed and stained for Alkaline phosphatase (ALP) activity, or stained for protein markers, or the cultures were continued with or without indicated splitting by trypsinization till day 30. For split cultures, the cells were split (1:4) and re-plated onto irradiated CF-1 MEF feeder layer (2.5×10^5 cells/well) in each well of 6 well plate and were split (1:10) again on day 21. The cells were maintained in the same media and compound cocktail described above except for the concentrations of PD0325901 (0.5 μM for D14 and 1 μM for D21) and SB431542 (0.5-1 μM after D14). The iPSC colonies were subsequently maintained in conventional hESC media in the absence of the above compounds.
Alkaline phosphatase staining was performed using ALP detection kit (cat no: SCR004, Chemicon) according to the product instructions. For immunocytochemistry, cells were fixed in 4% paraformaldehyde (10 min, RT), washed twice with PBS, blocked using 5% normal donkey serum (Chemicon) and 0.1% TritonX-100 (15 min, RT) and then treated with primary antibodies overnight at 4° C. The primary antibodies used were anti-NANOG (cat no: AB9220, Chemicon, 1:1,000); anti-OCT4 (cat no: sc-5279, Santa Cruz biotech, 1:200), anti-SSEA 4 (cat no: mab4304, Chemicon, 1:500), anti-Tra-1-81 (cat 560123, BD Biosciences, 1:100), anti-Tra-1-81 (mAb 4381, Chemicon, 1:500), anti-βIII TUBULIN (cat no: MMS-435P, Covance Research Products Inc, 1:1000), anti-PDX 1 (1:500) (a kind gift from Dr. C. Wright), anti-BRACHYURY (cat No: AF2085, R & D, final concentration 0.2 μg/ml). The cells were washed twice with PBS and then treated with secondary antibodies for 1 hour at room temperature. The secondary antibodies used were Alexa fluor 488 donkey anti-rabbit or anti-mouse IgG (Invitrogen, 1:1,000) and Alexa fluor 555 donkey anti-rabbit or anti-mouse IgG (Invitrogen, 1:1,000). Nuclei were stained with 0.5 μg/ml DAPI (Sigma). Images were captured using a Nikon Eclipse TE2000-U/X-cite 120 EXFO microscope with a photometric CoolSnap HQ2 camera.

## CCCC(=O)[O-].[Na+] [NaB, Sodium butyrate]
[1]
  generation of iPSCs / enhancement of reprogramming under OK condition (in words): substantially enhance reprogramming; also recorded: much more reliable and efficient

## O=C(NOC[C@H](O)CO)c1ccc(F)c(F)c1Nc1ccc(I)cc1F [PD0325901]
[2]; 4TFs, D14, no splitting
  NANOG+ colonies at day 14: no NANOG^+ colonies

## O=C(O)/C=C(/CCc1ccc(Cl)cc1)c1ccccc1 [PS48]
[1]
  generation of iPSCs / enhancement of reprogramming under OK condition (in words): substantially enhance reprogramming
[1]; two factors/OK, with 0.5 μM PD0325901 and 0.5 μM A-83-01
  enhancement of the reprogramming efficiency: about fifteen fold

## NC(=O)c1ccc(-c2nc(-c3ccc4c(c3)OCO4)c(-c3ccccn3)[nH]2)cc1 [SB431542]
[2]; 4TFs
  dose dependence of the effect on iPS cell generation: dose dependent
[2]; 4TFs, 1×10^4 cells, day 7 post-treatment (D14), SB431542 2 μM, PD0325901 0.5 μM
  ALP+ colonies with hESC-like morphology: 1-2 colonies
[2]; 4TFs, 30 days without splitting
  number of granulate (partially reprogrammed) colonies: outnumbered by several fold the few hESC-like colonies

## Cc1ccc2c(c1)C(=O)C1(O)CCN(c3ccccc3)C1=N2 (stereo not drawn) [blebbistatin]
[2]
  effect on reprogramming (in words): can be substituted for SB431542 (an ALK5 inhibitor), albeit with a reduced effect

## TGFβ
[2]
  effect on reprogramming (in words): inhibitory effect
